Test results reported in patent US6524785B1, “Perfusion and/or preservation and/or re-perfusion solution during organ transplant” (Centre National de la Recherche Scientifique, priority 1998, dated 2003).
“Also recorded” adds a separate entry of the source.

Tests used:
[1] = system: transplanted heart; assay: Heterotopic transplant of rat heart, 3 hours of ischemia, function and energy metabolism after 1 hour and 24 hours of re-perfusion; format: in vivo; conditions: with versus without arginine, after 1 hour and after 24 hours of re-perfusion; first results
Method: FIG. 20 represents, within the framework of a protocol corresponding to 3 hours of ischemia with arrest and preservation in CRMBM solution, the ratios of different energy metabolites after 1 hour of re-perfusion (represented by the white histogram marked with black lines) and 24 hours of re-perfusion (represented by the histogram with white and black hatching).
The cardiac function, as represented by the derivative of developed pressure (dP/dtmax), is indicated by the black histogram without arginine, and by the histogram with white and black hatching with arginine.
A heterotopic transplant of rat heart model has been developed, working where the function and the metabolism can be simultaneously analysed. In this model the functional and metabolic recovery has thus been studied after 1 hour and 24 hours of re-perfusion after ischemia of 3 hours, protected by the invention solution.
The study has made it possible to analyse the long term recovery of the heart, comparing 1 hour and 24 hours of re-perfusion.

[2] = system: isolated, perfused heart; assay: Isolated perfused rat heart: cardioplegic arrest, cold ischemia and re-perfusion, hemodynamic and metabolic evaluation (P-31 MRS, biochemistry); conditions: L-arginine added versus without
Method: The hearts are removed from male Sprague Dawley rats of 350 to 375 g and anaesthetised by intraperitoneal injection of pentobarbital. The hearts are then perfused following the isovolumic contracting heart model. In this model, the heart is perfused with Krebs-Henseleit buffer at 37° C., without phosphate, in a retrograde manner via the aorta, at a constant pressure of 100 mmHg An incompressible balloon, placed in the left ventricle makes the contraction isovolumic. This model makes it possible to evaluate the cardiac function, by the developed pressure and to measure the compliance by measurement of the diastolic pressure. […]
The signals observed in the RMN spectrum of the P-31 are those of inorganic phosphate, phosphocreatine and the 3 phosphorous molecules of ATP. […] The areas and the positions of resonance are determined by using the NMR1 program (New Methods Research Syracuse, N.Y.) on an IBM Risc System 6000 operating system.
The areas measured are corrected by taking into consideration the saturation factors determined by comparing the acquired spectrums to completely relaxed spectrums. The areas of different metabolites can thus be converted into concentrations by referring to the ATPβ area, taking into consideration a cytosolic concentration of 11.6 mM for the ATP (determined by high pressure liquid chromatography). […]

N=C(N)NCCC[C@H](N)C(=O)O [L-arginine]
functional recovery of the heart, effect of L-arginine [1]: beneficial effect | content in adenylic nucleotides ([2]; 8 hours of ischemia and re-perfusion, HPLC): without however affecting | pool of amino acids during re-perfusion ([2]; protocol 3: 8 hours of ischemia, HPLC in frozen hearts): greater pool of amino acids; also recorded: limits the depletion
